Results taken from ChEMBL document CHEMBL3526091, “Pharmacokinetics, metabolism, and excretion of the glycogen synthase kinase-3 inhibitor LY2090314 in rats, dogs, and humans: a case study in rapid clearance by extensive metabolism with low circulating metabolite exposure” (Drug Metab Dispos, 2013).

Columns and labels:
[1] = Cmax in cancer patient at 40 mg for 60 mins treated 1/1 cycle/day; assay type: ADME, organism-based; set-up: dose 40 mg, dosed compound name LY2090314; details: human, in vivo
Rattus norvegicus [2] = test: Total drug recovery in bile duct-cannulated Sprague-Dawley rat at 5 mg/kg, iv administered for 30 mins during 0 to 12 hrs time interval by radio analysis; assay type: ADME, organism-based; set-up: dose 5 mg/kg, dosed compound name [14C]LY2090314, route intravenous; details: in vivo
[3] = Half life in cancer patient at 40 mg for 60 mins treated 1/8 cycle/day; assay type: ADME, organism-based; set-up: dosed compound name LY2090314; details: human, in vivo
[4] = Volume of distribution at steady state in Sprague-Dawley rat at 5 mg/kg, iv administered for 30 mins; assay type: ADME, organism-based; set-up: dose 5 mg/kg, dosed compound name [14C]LY2090314, route intravenous; details: in vivo, read-out: Vdss
[5] = AUC (0 to infinity) in cancer patient at 80 mg for 60 mins treated 1/1 cycle/day; assay type: ADME, organism-based; set-up: dose 80 mg, time infinity, dosed compound name LY2090314; details: human, plasma
[6] = Half life in cancer patient at 40 mg for 60 mins treated 1/1 cycle/day; assay type: ADME, organism-based; set-up: dosed compound name LY2090314; details: human, in vivo
[7] = Drug metabolism in Mrp2 knockout Sprague-Dawley rat bile at 5 mg/kg, iv administered for 30 mins; assay type: ADME, organism-based; set-up: dose 5 mg/kg, dosed compound name LY2090314, route intravenous; details: in vivo, 0.5 h
Rattus norvegicus [8] = test: Elimination half life in Sprague-Dawley rat assessed as total radioactivity at 5 mg/kg, iv administered for 30 mins; assay type: ADME, organism-based; set-up: dose 5 mg/kg, dosed compound name [14C]LY2090314, route intravenous; details: in vivo, 0.5 h
[9] = Cmax in cancer patient at 80 mg for 60 mins treated 1/1 cycle/day; assay type: ADME, organism-based; set-up: dose 80 mg, dosed compound name LY2090314; details: human, in vivo
[10] = Cmax in cancer patient at 120 mg for 60 mins treated 1/1 cycle/day; assay type: ADME, organism-based; set-up: dose 120 mg, dosed compound name LY2090314; details: human, in vivo
[11] = Volume of distribution at steady state in cancer patient at 60 mg for 60 mins treated 1/8 cycle/day; assay type: ADME, organism-based; set-up: dosed compound name LY2090314; details: human, in vivo, read-out: Vdss
Plasma [12] = test: Drug metabolism in Mdr1a knockout Sprague-Dawley rat plasma at 5 mg/kg, iv administered for 30 mins; assay type: ADME, organism-based; set-up: dose 5 mg/kg, dosed compound name LY2090314, route intravenous; details: in vivo, 0.5 h
[13] = Cmax in cancer patient at 60 mg for 60 mins treated 1/1 cycle/day; assay type: ADME, organism-based; set-up: dose 60 mg, dosed compound name LY2090314; details: human, in vivo
[14] = Elimination half life in Sprague-Dawley rat at 5 mg/kg, iv administered for 30 mins; assay type: ADME, organism-based; set-up: dose 5 mg/kg, dosed compound name [14C]LY2090314, route intravenous; details: in vivo, read-out: beta t1/2 (converted)
[15] = Drug recovery in beagle dog feces at 5 mg/kg, iv administered for 30 mins during 0 to 168 hrs time interval by radio analysis; assay type: ADME, organism-based, Canis lupus familiaris; set-up: dose 5 mg/kg, dosed compound name [14C]LY2090314, route intravenous; details: in vivo
[16] = Clearance in cancer patient at 20 mg for 60 mins treated 2/1 cycle/day; assay type: ADME, organism-based; set-up: dosed compound name LY2090314; details: human, in vivo
[17] = AUC (0 to infinity) in cancer patient at 120 mg for 60 mins treated 1/8 cycle/day; assay type: ADME, organism-based; set-up: dose 120 mg, time infinity, dosed compound name LY2090314; details: human, plasma
[18] = Volume of distribution at steady state in cancer patient at 40 mg for 60 mins treated 1/1 cycle/day; assay type: ADME, organism-based; set-up: dosed compound name LY2090314; details: human, in vivo, read-out: Vdss
Plasma [19] = test: Plasma concentration in Sprague-Dawley rat at 5 mg/kg, iv administered for 30 mins; assay type: ADME, organism-based; set-up: dose 5 mg/kg, dosed compound name [14C]LY2090314, route intravenous; details: in vivo, 0.5 h
[20] = Half life in cancer patient at 120 mg for 60 mins treated 1/1 cycle/day; assay type: ADME, organism-based; set-up: dosed compound name LY2090314; details: human, in vivo
Rattus norvegicus [21] = test: Clearance in Sprague-Dawley rat assessed as total radioactivity at 5 mg/kg, iv administered for 30 mins; assay type: ADME, organism-based; set-up: dose 5 mg/kg, dosed compound name [14C]LY2090314, route intravenous; details: in vivo, 0.5 h
[22] = Cmax in cancer patient at 40 mg for 60 mins treated 1/8 cycle/day; assay type: ADME, organism-based; set-up: dose 40 mg, dosed compound name LY2090314; details: human, in vivo
[23] = Drug recovery in bile duct-cannulated Sprague-Dawley rat urine at 5 mg/kg, iv administered for 30 mins during 0 to 168 hrs time interval by radio analysis; assay type: ADME, organism-based; set-up: dose 5 mg/kg, dosed compound name [14C]LY2090314, route intravenous; details: in vivo
[24] = Cmax in Sprague-Dawley rat at 5 mg/kg, iv administered for 30 mins; assay type: ADME, organism-based; set-up: dose 5 mg/kg, dosed compound name [14C]LY2090314, route intravenous; details: in vivo
[25] = Volume of distribution at steady state in cancer patient at 60 mg for 60 mins treated 1/1 cycle/day; assay type: ADME, organism-based; set-up: dosed compound name LY2090314; details: human, in vivo, read-out: Vdss
[26] = AUC (0 to infinity) in beagle dog at 5 mg/kg, iv administered for 30 mins; assay type: ADME, organism-based, Canis lupus familiaris; set-up: time infinity, dose 5 mg/kg, dosed compound name [14C]LY2090314, route intravenous; details: plasma
[27] = Drug recovery in Sprague-Dawley rat feces at 5 mg/kg, iv administered for 30 mins during 0 to 168 hrs time interval by radio analysis; assay type: ADME, organism-based; set-up: dose 5 mg/kg, dosed compound name [14C]LY2090314, route intravenous; details: in vivo

## O=C1NC(=O)C(c2cnc3ccccn23)=C1c1cn2c3c(cc(F)cc13)CN(C(=O)N1CCCCC1)CC2 [LY-2090314]
[1]
  Cmax: 0.603 µg/mL
Rattus norvegicus [2]
  Radiolabel recovery: 87%
[3]
  half-life: 2.68 h
[4]
  Vd: 1.19 L/kg
[5]
  AUC(0-inf): 1.87 µg·h/mL
[6]
  half-life: 3.15 h
[7]
  Drug metabolism: metabolite_detected
Rattus norvegicus [8]
  beta t1/2: 7.25 h
[9]
  Cmax: 0.898 µg/mL
[10]
  Cmax: 1.7 µg/mL
[11]
  Vd: 67.5 L
Plasma [12]
  Drug metabolism: metabolite_not_detected
[13]
  Cmax: 0.881 µg/mL
[14]
  half-life: 0.358 h
[15]
  Radiolabel recovery: 69.2%
[16]
  clearance: 825 mL/min
[17]
  AUC(0-inf): 2.19 µg·h/mL
[18]
  Vd: 79.3 L
Plasma [19]
  Compound recovery: 70.4%
[20]
  half-life: 2.97 h
Rattus norvegicus [21]
  CL: 2.43 L/h/kg
[22]
  Cmax: 0.657 µg/mL
[23]
  Radiolabel recovery: 1.94%
[24]
  Cmax: 1.68 µg/mL
[25]
  Vd: 76.8 L
[26]
  AUC(0-inf): 3.23 µg·h/mL
[27]
  Radiolabel recovery: 96.7%
